We go through 3 molecules from patent US9192613B1, “Treatment method for primary premature ejaculation” (Sapere IP, LLC, priority 2014, dated 2015).

Data set [1] has as its system men with premature ejaculation. Particulars: cited from earlier work.
In data set [2] the test system is patients receiving intracavernous injection. Particulars: pooled publications; cited from earlier work.
Data set [3] concerns patients with primary premature ejaculation. Kind of data set: On-demand treatment of primary premature ejaculation: onset of action. It is filed as in vivo, men. The following applies: intracavernosal injection, 5-20 mcg, 20 mcg/ml.
Description: Side-effects are dose related and include dizziness, headache, nausea, blurred vision and dry mouth.
The doses start at lower doses such as 5 mcg=0.25 ml and progress to higher doses such as 10 mcg=0.5 ml and 20 mcg=1 ml, as needed, to achieve the desired effect.

As to `CN(C)CCCN1c2ccccc2CCc2ccc(Cl)cc21` [Clomipramine], the “Effect at delaying ejaculation” value in data set [1] (oral administration) is reported as “significant effect at delaying ejaculation”. Besides, the “Time the drug needs to be taken before sexual relations” value in data set [1] (oral, on-demand use) was 3 to 4 h.

Turning to `COc1ccc(Cc2nccc3cc(OC)c(OC)cc23)cc1OC` [Papaverine], in data set [2], the “Fibrosis (%)” value is reported as 5.7%, the “Liver Enzymes (%)” value is listed as 1.6%, the “Pain (%)” value is recorded as 4% and the “Priapism (%)” value is given as 7.1%.

`CCCCC[C@H](O)/C=C/[C@H]1[C@H](O)CC(=O)[C@@H]1CCCCCCC(=O)O` [Alprostadil]: the “Onset of Action” value in data set [3] is 5 to 10 min.
